These are literature values, as cited in publication PMC6054295 (Infection and Drug Resistance, 2018).

Where no end group is shown, it is not given here. A value given as a limit tells only on which side of the number the result lay.

In data set [1] the test system is P. aeruginosa. As to conditions: at concentrations > 100 μM.
In data set [2] the test system is MEWO cells.
Data set [3] relates to 3T3 cells.

N-APPGARPPPGPPPPGPPPPGP-C [SP-B]: the antibacterial activity entry in data set [1] is on record as “negligible antibacterial activity”. The cytotoxicity entry in data set [2] and in data set [3] was “noncytotoxic” each time.
With “indolicidin: a proline- and tryptophan-rich peptide (ILPWKWPWWPWRR; ends and bridges not checked; UniProt P33046 131-143, looked up)”, the “concentration at which it behaves as a membrane-disrupting peptide” value is greater than 2.6 µM.
